Data taken from patent US11780832B2, “Lactivicin compounds, their preparation and use as antibacterial agents” (priority 2021, dated 2023).
Converted amounts (≈) assume the structure as drawn.

How the values were obtained:
Assay in all cases: MIC, CLSI broth microdilution
Type in all cases: cell-based
[1] = tested on: Acinetobacter baumannii ATCC 19606; details: ATCC19606
Procedure: (§1) Gram-negative and Gram-positive bacterial strains used during the in vitro minimum inhibitory concentration (MIC) determination were obtained either from the American Type Culture Collection (ATCC) or from clinical specimens. All strains were characterized genotypically and the respective antibiotic resistance markers for each strain were identified.
(§2) Isolates were sub-cultured onto appropriate media and stocked in skim milk at −80° C. Following two subcultures from frozen stock, in vitro antimicrobial susceptibility testing was performed using the Clinical and Laboratory Standards Institute (CLSI) broth microdilution method. Briefly, fresh cultures were suspended in culture media to give a final stock inoculum size of 5×10^7 colony forming units per milliliter of broth (CFU/mL). […] 100 μL of the stock solutions were added to the first wells in a 96-well plate and were then diluted using a 2-fold dilution method to give a range of 32-0.025 μg/mL. 100 μL of the bacterial suspensions were then added to the 96-well plates to give a final working inoculum size of 5×10^5 CFU/mL. The final compound concentration range was 16-0.0125 μg/mL. […] MICs for comparator agents were determined using custom-designed, in-house prepared 96-well broth microdilution panels.

[2] = tested on: Citrobacter freundii species complex OXA-181; details: Citrobacter freundii species complex, OXA-181; read-out: MIC
Procedure: as §1, §2

[3] = tested on: Enterobacter cloacae species complex NDM-1
Procedure: as §1, §2

[4] = tested on: Escherichia coli ATCC 25922; details: ATCC25922
Procedure: as §1, §2

Escherichia coli CMY-2 = details: CMY2
Procedure: as §1, §2

[5] = tested on: Escherichia coli CTX-M-15; details: CTXM15
Procedure: as §1, §2

[6] = tested on: Escherichia coli Empty pSMART plasmid
Procedure: as §1, §2

[7] = tested on: Escherichia coli Isogenic TEM-10
Procedure: as §1, §2

[8] = tested on: Escherichia coli Isogenic TEM-26
Procedure: as §1, §2

Escherichia coli SHV-12 = details: SHV12
Procedure: as §1, §2

[9] = tested on: Escherichia coli pSMART_Cfreundii_AmpC
Procedure: as §1, §2

[10] = tested on: Escherichia coli pSMART_Ecloacae_AmpC
Procedure: as §1, §2

[11] = tested on: Klebsiella aerogenes VIM-1, SHV-12
Procedure: as §1, §2

[12] = tested on: Klebsiella oxytoca KPC-2, TEM-1; details: KPC-2, TEM-1, read-out: MIC
Procedure: as §1, §2

[13] = tested on: Klebsiella pneumoniae KPC-2; details: KPC2
Procedure: as §1, §2

[14] = tested on: Klebsiella pneumoniae KPC-3; details: KPC3, KPC-3, read-out: MIC
Procedure: as §1, §2

[15] = tested on: Klebsiella pneumoniae OXA-163, OXA-1_OXA-30, SHV-1, TEM-1
Procedure: as §1, §2

[16] = tested on: Klebsiella pneumoniae OXA-48, SHV-1
Procedure: as §1, §2

[17] = tested on: Klebsiella pneumoniae SHV-12; details: SHV12, SHV-12, read-out: MIC
Procedure: as §1, §2

[18] = tested on: Pseudomonas aeruginosa ATCC 27853; details: ATCC27853
Procedure: as §1, §2

[19] = tested on: Pseudomonas aeruginosa AmpC overexpressed
Procedure: as §1, §2

[20] = tested on: Pseudomonas aeruginosa OprD negative
Procedure: as §1, §2

[21] = tested on: Serratia marcescens AmpC overexpressed
Procedure: as §1, §2

[22] = tested on: Serratia marcescens SME-2; details: SME2
Procedure: as §1, §2

Row | SMILES | MIC [1] | MIC [2] | MIC [3] | MIC [4] | MIC (Escherichia coli CMY-2) | MIC [5] | MIC [6] | MIC [7] | MIC [8] | MIC (Escherichia coli SHV-12) | MIC [9] | MIC [10] | MIC [11] | MIC [12] | MIC [13] | MIC [14] | MIC [15] | MIC [16] | MIC [17] | MIC [18] | also measured
1 | Nc1nc(/C(=N/OC2(C(=O)O)CC3CCC(C2)O3)C(=O)N[C@H]2CON(C3(C(=O)O)C[C@H](N4C(=O)c5cc(O)c(O)cc5C4=O)C(=O)O3)C2=O)cs1 (stereo partly drawn) [Cmpd 13, 3-({(Z)-[1-(2-amino-1,3-thiazol-4-yl)-2-({(4S)-2-[(4S)-2-carboxy-4-(5,6-dihydroxy-1,3-dioxo-1,3-dihydro-2H-isoindol-2-yl)-5-oxooxolan-2-yl]-3-oxo-1,2-oxazolidin-4-yl}amino)-2-oxoethylidene]amino}oxy)-8-oxabicyclo[3.2.1]octane-3-carboxylic acid] | 0.12 µg/mL (≈ 0.164 µM) | 0.0149 µg/mL (≈ 0.0204 µM) | 1 µg/mL (≈ 1.37 µM) | 0.12 µg/mL (≈ 0.164 µM) | 0.5 µg/mL (≈ 0.684 µM) | 4 µg/mL (≈ 5.47 µM) | 0.12 µg/mL (≈ 0.164 µM) | 0.03 µg/mL (≈ 0.0411 µM) | 0.03 µg/mL (≈ 0.0411 µM) | 2 µg/mL (≈ 2.74 µM) | 0.06 µg/mL (≈ 0.0821 µM) | 0.06 µg/mL (≈ 0.0821 µM) | 0.25 µg/mL (≈ 0.342 µM) | 0.0149 µg/mL (≈ 0.0204 µM) | 0.25 µg/mL (≈ 0.342 µM) | 0.06 µg/mL (≈ 0.0821 µM) | 0.12 µg/mL (≈ 0.164 µM) | 0.0149 µg/mL (≈ 0.0204 µM) | 0.03 µg/mL (≈ 0.0411 µM) | 0.25 µg/mL (≈ 0.342 µM) | MIC [19]: 1 µg/mL (≈ 1.37 µM); MIC [20]: 0.25 µg/mL (≈ 0.342 µM); MIC [21]: 0.12 µg/mL (≈ 0.164 µM); MIC [22]: 0.25 µg/mL (≈ 0.342 µM)
2 | Nc1nc(/C(=N/OC2(C(=O)O)CC3CCC(C2)O3)C(=O)N[C@H]2CON(C3(C(=O)O)C[C@H](N4C(=O)c5cc(O)c(O)nc5C4=O)C(=O)O3)C2=O)cs1 (stereo partly drawn) [Cmpd 27, 3-({(Z)-[1-(2-amino-1,3-thiazol-4-yl)-2-({(4S)-2-[(4S)-2-carboxy-4-(2,3-dihydroxy-5,7-dioxo-5,7-dihydro-6H-pyrrolo[3,4-b]pyridin-6-yl)-5-oxooxolan-2-yl]-3-oxo-1,2-oxazolidin-4-yl}amino)-2-oxoethylidene]amino}oxy)-8-oxabicyclo[3.2.1]octane-3-carboxylic acid] | 1 µg/mL (≈ 1.37 µM) | 0.12 µg/mL (≈ 0.164 µM) | 2 µg/mL (≈ 2.73 µM) | 0.5 µg/mL (≈ 0.683 µM) | 4 µg/mL (≈ 5.47 µM) | 8 µg/mL (≈ 10.9 µM) | 0.25 µg/mL (≈ 0.342 µM) | 0.25 µg/mL (≈ 0.342 µM) | 0.12 µg/mL (≈ 0.164 µM) | 8 µg/mL (≈ 10.9 µM) | 0.25 µg/mL (≈ 0.342 µM) | 0.25 µg/mL (≈ 0.342 µM) | 0.12 µg/mL (≈ 0.164 µM) | 0.0149 µg/mL (≈ 0.0204 µM) | 0.06 µg/mL (≈ 0.082 µM) | 0.12 µg/mL (≈ 0.164 µM) | 0.25 µg/mL (≈ 0.342 µM) | 0.03 µg/mL (≈ 0.041 µM) | 0.12 µg/mL (≈ 0.164 µM) | 4 µg/mL (≈ 5.47 µM) | MIC [19]: 4 µg/mL (≈ 5.47 µM); MIC [20]: 2 µg/mL (≈ 2.73 µM); MIC [21]: 0.5 µg/mL (≈ 0.683 µM); MIC [22]: 1 µg/mL (≈ 1.37 µM)
3 | Nc1nc(/C(=N/OC2(C(=O)O)CCOCC2)C(=O)N[C@H]2CON(C3(C(=O)O)C[C@H](N4Cc5cc(O)c(O)cc5C4=O)C(=O)O3)C2=O)cs1 (stereo partly drawn) [Cmpd 29, 4-({(Z)-[1-(2-amino-1,3-thiazol-4-yl)-2-({(4S)-2-[(4S)-2-carboxy-4-(5,6-dihydroxy-1-oxo-1,3-dihydro-2H-isoindol-2-yl)-5-oxooxolan-2-yl]-3-oxo-1,2-oxazolidin-4-yl}amino)-2-oxoethylidene]amino}oxy)oxane-4-carboxylic acid] | 0.12 µg/mL (≈ 0.174 µM) | 0.12 µg/mL (≈ 0.174 µM) | 4 µg/mL (≈ 5.79 µM) | 0.5 µg/mL (≈ 0.724 µM) | 2 µg/mL (≈ 2.9 µM) | 2 µg/mL (≈ 2.9 µM) | 0.5 µg/mL (≈ 0.724 µM) | 0.03 µg/mL (≈ 0.0434 µM) | 0.03 µg/mL (≈ 0.0434 µM) | 2 µg/mL (≈ 2.9 µM) | 0.25 µg/mL (≈ 0.362 µM) | 0.12 µg/mL (≈ 0.174 µM) | 0.25 µg/mL (≈ 0.362 µM) | 0.0149 µg/mL (≈ 0.0216 µM) | 0.0149 µg/mL (≈ 0.0216 µM) | 0.06 µg/mL (≈ 0.0869 µM) | 0.25 µg/mL (≈ 0.362 µM) | 0.03 µg/mL (≈ 0.0434 µM) | 0.06 µg/mL (≈ 0.0869 µM) | 0.5 µg/mL (≈ 0.724 µM) | MIC [19]: 2 µg/mL (≈ 2.9 µM); MIC [20]: 0.5 µg/mL (≈ 0.724 µM); MIC [21]: 0.25 µg/mL (≈ 0.362 µM); MIC [22]: 0.25 µg/mL (≈ 0.362 µM)
4 | Nc1nc(/C(=N/OC2(C(=O)O)CC3CCC(C2)O3)C(=O)N[C@H]2CON(C3(C(=O)O)C[C@H](N4Cc5cc(O)c(O)cc5C4=O)C(=O)O3)C2=O)cs1 (stereo partly drawn) [Cmpd 30, 3-({(Z)-[1-(2-amino-1,3-thiazol-4-yl)-2-({(4S)-2-[(4S)-2-carboxy-4-(5,6-dihydroxy-1-oxo-1,3-dihydro-2H-isoindol-2-yl)-5-oxooxolan-2-yl]-3-oxo-1,2-oxazolidin-4-yl}amino)-2-oxoethylidene]amino}oxy)-8-oxabicyclo[3.2.1]octane-3-carboxylic acid] | 0.5 µg/mL (≈ 0.698 µM) | 0.12 µg/mL (≈ 0.167 µM) | 4 µg/mL (≈ 5.58 µM) | 1 µg/mL (≈ 1.4 µM) | 4 µg/mL (≈ 5.58 µM) | 8 µg/mL (≈ 11.2 µM) | 1 µg/mL (≈ 1.4 µM) | 0.12 µg/mL (≈ 0.167 µM) | 0.5 µg/mL (≈ 0.698 µM) | 8 µg/mL (≈ 11.2 µM) | 0.25 µg/mL (≈ 0.349 µM) | 0.25 µg/mL (≈ 0.349 µM) | 0.12 µg/mL (≈ 0.167 µM) | 0.03 µg/mL (≈ 0.0419 µM) | 0.03 µg/mL (≈ 0.0419 µM) | 0.12 µg/mL (≈ 0.167 µM) | 1 µg/mL (≈ 1.4 µM) | 0.06 µg/mL (≈ 0.0837 µM) | 0.25 µg/mL (≈ 0.349 µM) | 4 µg/mL (≈ 5.58 µM) | MIC [19]: 4 µg/mL (≈ 5.58 µM); MIC [20]: 1 µg/mL (≈ 1.4 µM); MIC [21]: 0.5 µg/mL (≈ 0.698 µM); MIC [22]: 0.5 µg/mL (≈ 0.698 µM)
5 | CC(C)(O/N=C(\C(=O)N[C@H]1CON(C2(C(=O)O)C[C@H](N3Cc4cc(O)c(O)cc4C3=O)C(=O)O2)C1=O)c1csc(N)n1)C(=O)O (stereo partly drawn) [Cmpd 35, (4S)-2-[(4S)-4-{[(2Z)-2-(2-amino-1,3-thiazol-4-yl)-2-{[(2-carboxypropan-2-yl)oxy]imino}acetyl]amino}-3-oxo-1,2-oxazolidin-2-yl]-4-(5,6-dihydroxy-1-oxo-1,3-dihydro-2H-isoindol-2-yl)-5-oxooxolane-2-carboxylic acid] | 0.25 µg/mL (≈ 0.385 µM) | 0.25 µg/mL (≈ 0.385 µM) | 1 µg/mL (≈ 1.54 µM) | 0.5 µg/mL (≈ 0.771 µM) | 8 µg/mL (≈ 12.3 µM) | 1 µg/mL (≈ 1.54 µM) | 0.06 µg/mL (≈ 0.0925 µM) | 0.06 µg/mL (≈ 0.0925 µM) | 0.12 µg/mL (≈ 0.185 µM) | 1 µg/mL (≈ 1.54 µM) | 0.5 µg/mL (≈ 0.771 µM) | 0.25 µg/mL (≈ 0.385 µM) | 1 µg/mL (≈ 1.54 µM) | 0.0149 µg/mL (≈ 0.023 µM) | 0.12 µg/mL (≈ 0.185 µM) | 0.25 µg/mL (≈ 0.385 µM) | 0.5 µg/mL (≈ 0.771 µM) | 0.03 µg/mL (≈ 0.0463 µM) | 0.06 µg/mL (≈ 0.0925 µM) | 0.5 µg/mL (≈ 0.771 µM) | MIC [19]: 2 µg/mL (≈ 3.08 µM); MIC [20]: 0.5 µg/mL (≈ 0.771 µM); MIC [21]: 0.5 µg/mL (≈ 0.771 µM); MIC [22]: 0.25 µg/mL (≈ 0.385 µM)
